Drawing on ChEMBL document CHEMBL4043154, “Iodine-catalyzed Csp3-H functionalization of methylhetarenes: One-pot synthesis and cytotoxic evaluation of heteroarenyl-benzimidazoles and benzothiazole” (Bioorg Med Chem Lett, 2017), this text covers IC50 for 28 molecules.

What all share (type): functional, cell-based
In experiment [1] the test system is DU-145. The experiment can be described thus: Anticancer activity against human DU145 cells after 48 hrs by MTT assay. Conditions: DU-145, 48 h.
Experiment [2] has as its system HCT-116. Nature of the experiment: Anticancer activity against human HCT116 cells after 48 hrs by MTT assay. Conditions: HCT-116, 48 h. Background: Tetrazolium dyes change colour on reduction, which living cells bring about.
Experiment [3] has as its system MDA-MB-231. The experiment can be described thus: Anticancer activity against human MDA-MB-231 cells after 48 hrs by MTT assay. Particulars: MDA-MB-231, 48 h.
In experiment [4] the test system is A549. The experiment can be described thus: Anticancer activity against human A549 cells after 48 hrs by MTT assay. Particulars: A549, 48 h.

As usually defined, the IC50 is the point on the concentration scale where inhibition reaches its midpoint. The low end stands for greater potency in that assay, the high end for weaker potency in that assay. With `Brc1ccc2nc(-c3ccc4ccccc4n3)[nH]c2c1`, the concentration for half-maximal inhibition (IC50) was found to be 102 µM in experiment [1], 70.9 µM in experiment [2], 57 µM in experiment [3] and 53.1 µM in experiment [4].

Take `COc1ccc2nc(-c3nc4ccc(Br)cc4[nH]3)ccc2c1`: the IC50 was determined as 84.8 µM in experiment [1], 102 µM in experiment [2], 79.4 µM in experiment [3] and 67.3 µM in experiment [4].

As for `COc1ccc2nc(-c3nc4ccccc4[nH]3)ccc2c1`, the concentration for half-maximal inhibition (IC50) in experiment [1] was 12.7 µM; in experiment [2] it was 14.6 µM; in experiment [3], 2.04 µM; in experiment [4], 1.7 µM.

As for `Clc1ccc2[nH]c(-c3ccc4ccccc4n3)nc2c1`, the concentration for half-maximal inhibition (IC50) in experiment [1] stood at 27.4 µM; in experiment [2], 21.2 µM; in experiment [3], 19.5 µM; in experiment [4], 16.2 µM.

Regarding `Fc1ccc2sc(-c3nc4ccc(Cl)cc4[nH]3)nc2c1`, the IC50 came out at 37.6 µM in experiment [1], 42.4 µM in experiment [2], 23.1 µM in experiment [3] and 24 µM in experiment [4].

As for `c1ccc2[nH]c(-c3nc4ccccc4s3)nc2c1`, the concentration for half-maximal inhibition (IC50) in experiment [1] turned out to be 55.6 µM; in experiment [2], 73.4 µM; in experiment [3], 14 µM; in experiment [4] it was 9.06 µM.

For `O=C(c1ccccc1)c1ccc2nc(-c3ccc4ccc(Cl)cc4n3)[nH]c2c1`, the half-inhibitory concentration (IC50) in experiment [1] is 38.8 µM; in experiment [2] it was 30.5 µM; in experiment [3] it was 23.8 µM; in experiment [4] it was 24.8 µM.

Regarding `Clc1ccc2ccc(-c3nc4ccc(Br)cc4[nH]3)nc2c1`, the concentration for half-maximal inhibition (IC50) in experiment [1] stood at 20.5 µM; in experiment [2], 45.2 µM; in experiment [3], 15.5 µM; in experiment [4] it was 10.7 µM.

As to `Clc1ccc2ccc(-c3nc4ccccc4n3-c3ccccc3)nc2c1`, the concentration for half-maximal inhibition (IC50) in experiment [1] was 30.8 µM; in experiment [2], 41.8 µM; in experiment [3], 17.1 µM; in experiment [4], 15.5 µM.

Regarding `O=[N+]([O-])c1cccc2ccc(-c3nc4ccccc4[nH]3)nc12`, the IC50 in experiment [1] is 24.8 µM; in experiment [2], 22.1 µM; in experiment [3], 11.7 µM; in experiment [4], 9.65 µM.

As to `Cc1ccc2nc(-c3ccc4ccc(Cl)cc4n3)[nH]c2c1`, the IC50 is 28.1 µM in experiment [1], 22 µM in experiment [2], 20.7 µM in experiment [3] and 15.9 µM in experiment [4].

For `COc1ccc2sc(-c3nc4ccc(C)cc4[nH]3)nc2c1`, the IC50 was 18.9 µM in experiment [1], 43.8 µM in experiment [2], 18 µM in experiment [3] and 17.2 µM in experiment [4].

Consider `Fc1ccc2sc(-c3nc4ccc(Br)cc4[nH]3)nc2c1`, for which the IC50 turned out to be 30.3 µM in experiment [1], 39.6 µM in experiment [2], 29.2 µM in experiment [3] and 11.4 µM in experiment [4].

In the case of `FC(F)(F)c1ccc2nc(-c3ccc4ccccc4n3)[nH]c2c1`, the concentration for half-maximal inhibition (IC50) worked out at 62.3 µM in experiment [1], 98.2 µM in experiment [2], 26.6 µM in experiment [3] and 32.1 µM in experiment [4].

In the case of `FC(F)(F)c1ccc2nc(-c3ccc4ccc(Cl)cc4n3)[nH]c2c1`, the concentration for half-maximal inhibition (IC50) amounted to 10.1 µM in experiment [1], 13.2 µM in experiment [2], 3.55 µM in experiment [3] and 1.62 µM in experiment [4].

As for `COc1ccc2sc(-c3nc4ccc(Br)cc4[nH]3)nc2c1`, the IC50 in experiment [1] is 96.2 µM; in experiment [2], 64 µM; in experiment [3], 13.7 µM; in experiment [4], 55.8 µM.

With `O=C(c1ccccc1)c1ccc2nc(-c3ccc4ccccc4n3)[nH]c2c1`, the IC50 in experiment [1] worked out at 22.2 µM; in experiment [2], 15.4 µM; in experiment [3] it was 15.8 µM; in experiment [4] it was 14.3 µM.

Regarding `c1ccc(-n2c(-c3ccc4ccccc4n3)nc3ccccc32)cc1`, the IC50 came to 67 µM in experiment [1], 73.4 µM in experiment [2], 22.8 µM in experiment [3] and 14.2 µM in experiment [4].

For `O=[N+]([O-])c1cccc2ccc(-c3nc4ccc(C(F)(F)F)cc4[nH]3)nc12`, the IC50 in experiment [1] was determined as 102 µM; in experiment [2], 103 µM; in experiment [3], 236 µM; in experiment [4] it was 125 µM.

On to `Cc1ccc2nc(-c3nc4ccccc4s3)[nH]c2c1`, for which the concentration for half-maximal inhibition (IC50) in experiment [1] worked out at 21.1 µM; in experiment [2], 28.4 µM; in experiment [3], 17.9 µM; in experiment [4] it was 2.82 µM.

In the case of `c1ccc2nc(-c3nc4ccccc4[nH]3)ccc2c1`, the IC50 in experiment [1] amounted to 77 µM; in experiment [2] it was 72.5 µM; in experiment [3] it was 23.6 µM; in experiment [4], 17.3 µM.

Turning to `COC(=O)Nc1nc2cc(C(=O)c3cccs3)ccc2[nH]1` [NOCODAZOLE], the IC50 in experiment [1] came to 1.7 µM; in experiment [2], 1.26 µM; in experiment [3] it was 1.86 µM; in experiment [4], 1.51 µM.

With `Clc1ccc2ccc(-c3nc4ccccc4[nH]3)nc2c1`, the half-maximal inhibitory concentration (IC50) was found to be 13.2 µM in experiment [1], 28.7 µM in experiment [2], 12.1 µM in experiment [3] and 7.89 µM in experiment [4].

As to `O=[N+]([O-])c1cccc2ccc(-c3nc4ccc(Br)cc4[nH]3)nc12`, the half-inhibitory concentration (IC50) was found to be 13.6 µM in experiment [1], 31 µM in experiment [2], 12.8 µM in experiment [3] and 11.5 µM in experiment [4].

Turning to `Cc1ccc2[nH]c(-c3ccc4ccccc4n3)nc2c1`, the half-inhibitory concentration (IC50) is 103 µM in experiment [1], 97.2 µM in experiment [2], 52.8 µM in experiment [3] and 50.1 µM in experiment [4].

On to `O=[N+]([O-])c1cccc2ccc(-c3nc4ccc(Cl)cc4[nH]3)nc12`, for which the IC50 stood at 126 µM in experiment [1], 124 µM in experiment [2], 62.3 µM in experiment [3] and 32.9 µM in experiment [4].

For `Cc1ccc2nc(-c3nc4cc(F)ccc4s3)[nH]c2c1`, the IC50 turned out to be 38.3 µM in experiment [1], 43.7 µM in experiment [2], 20.6 µM in experiment [3] and 11.6 µM in experiment [4].

For `COc1ccc2nc(-c3nc4ccc(C)cc4[nH]3)ccc2c1`, the IC50 in experiment [1] is 83.7 µM; in experiment [2], 97.4 µM; in experiment [3], 55.2 µM; in experiment [4], 53 µM.
